This note sets out measurements from patent publication US20090311214A1, “COMPOSITIONS AND METHODS FOR THE INNATE IMMUNE RESPONSE PATHWAY” (UNIVERSITY OF MARYLAND, BALTIMORE, priority 2008, published 2009).

Entries after “also recorded” stand apart in the source; their conditions may differ.

Holding throughout (format): cell-based, human
Experiment [1] concerns PBMC. In words: PBMC pretreated with IL-1ra before stimulation with PTG or β-glucan. Here is the method:
Considering the essential role for IL-1β in the IL-23/TH17 innate response in purified monocytes, we predicted that IL-1β regulates the cytokine profile triggered by PTG and β-glucan in whole PBMC as well. To this end, PBMC were pretreated with IL-1ra for 1 h prior to stimulation with PTG or β-glucan, or incubated with 5 ng/ml IL-1β alone for 20 h.
(§1) PBMC cultures. PBMC from CD patients and HLA-DQ2^+ healthy controls was tested as follows. 10^6 PBMC/ml were incubated in RPMI-1640 supplemented with 10% heat inactivated hAB, 1% L-glutamine, 1% Pen-Strep and 20 mM Hepes Buffer (cRPMI) with and without PTG, β-glucan, 5 ng/ml rhIL-1β, or 10 μg/ml pooled synthetic 20 mers of α-gliadin in 96 well U-bottom plates (Denville Scientific Inc.) at 37° C. in 5% CO2 for 6, 24, 48, or 72 h. Alternatively, 10^6 PBMC/ml were incubated with 0.5 μg/ml rhIL-1ra at 37° C. in 5% CO2 for 1 h then cultured with and without 100 μg/ml PTG or 500 μg/ml β-glucan for an additional 20 h. Cell-free culture supernatants were harvested for cytokine and chemokine analysis.
(§2) Cytokine & chemokine analysis. Cell-free culture supernatants were analyzed for IL-1β, IL-1ra, IL-6, IL-12p70, IFNγ, TNFα (Bio-Plex Cytokine Assay kit, Bio-Rad) or IL-1β, IL-23 (ELISA kit, eBiosciences), IL-1ra and CCL20 (Quantikine ELISA kit, R & D Systems) following the manufacturers' protocols. Appropriate standard curves were included in each assay.

Another experiment relates to IFNγ-treated immDC. In words: IFNγ-treated immDC exposed to PTG with or without IL-1ra or IL-1β. As to conditions: addition to IFNγ-treated immDC. Here is the method: IL-23 is only secreted by activated APC such as monocytes, macrophages and DC, which reduces the number of possible cell sources considerably. To determine which of these cell populations was the source of IL-23 in response to PTG, purified lymphocytes, monocytes, or monocyte-derived DC cultured with GM-CSF and IL-4, were incubated in the presence or absence of PTG for 24 h, at which time supernatants were collected for IL-23, IL-1β, IL-6, IFNγ and TNFα analysis. […] Since neither PTG nor β-glucan activated cytokine production in DC differed from monocytes, we examined the response after pretreatment with IFNγ, given that this treatment has been necessary for the IL-23 response to a variety of agents including β-glucan. immDC were cultured in the presence or absence of IFNγ for 18 h prior to addition of PTG, after which supernatants were subjected to cytokine analysis as described above. […] Moreover, these findings provide insight to the mechanisms in which IFNγ counteracts IL-1 dependent TH17 responses. […]

For experiment [2], the system named is monocytes. In words: Purified monocytes pretreated with IL-1ra before PTG or β-glucan. Here is the method:
To better understand the contribution of IL-1 signaling in the IL-23/TH17 innate response to PTG in monocyte and immDC populations, we pretreated monocytes, immDC and IFNγ-treated immDC with the naturally occurring anti-inflammatory IL-1 receptor antagonist (IL-1ra) for 1 h prior to stimulation with PTG or β-glucan as a positive control, or incubated with increasing doses of exogenous IL-1β for 20 h. […] Contradictory to the monocyte response, addition of IL-1ra or IL-1β to IFNγ-treated immDC had no effect on the IL-23/TH17 profile induced by PTG exposure (FIG. 3D), providing further indication that monocytes exposed to gluten and not their progeny DC have the potential to activate autoreactive memory TH17 cells. Indeed, other groups have reported in human studies that activated monocytes, which produce IL-1β and IL-23, are the best inducers of TH17 cells (Evans et al., Proc. Natl. Acad. Sci., U.S.A., 104(43):17034-17039 (2007)).
Elutriated monocyte cultures. 5×10^5 monocytes/ml were cultured in cRPMI with and without 100 μg/ml PTG, 100 μg/ml β-glucan, or 0.5-50 ng/ml rhIL-1β in 96 well U-bottom plates at 37° C. in 5% CO2 for 20 h. Alternatively, 5×10^5 monocytes/ml were incubated with 0.5 μg/ml rhIL-1ra at 37° C. in 5% CO2 for 1 h then cultured with and without 100 μg/ml PTG or β-glucan for an additional 20 h. Cell-free culture supernatants were harvested for cytokine and chemokine analysis.
as §2

The subject of experiment [3] is PBMC. In words: PBMC cultures with PTG, β-glucan, IL-1β or α-gliadin peptides; cytokine/chemokine analysis of supernatants. Here is the method:
We cultured PBMC from HLA-DQ2 positive and HLA-DQ2 negative healthy persons in the presence or absence of 100 ug/ml of PTG or β-D-glucan from barley as a positive control for 20 h. Cell-free culture supernatants were harvested and analyzed for proinflammatory cytokines IL-1β, IL-6, IFNγ, TNFα (Luminex) IL-23 and the TH17 chemokine CCL20/MIP-3α (ELISA).
as §1, §2

The test system of experiment [4] is monocytes. In words: Purified lymphocytes, monocytes or monocyte-derived DC with PTG, β-glucan or IL-1β. The procedure: IL-23 is only secreted by activated APC such as monocytes, macrophages and DC, which reduces the number of possible cell sources considerably. To determine which of these cell populations was the source of IL-23 in response to PTG, purified lymphocytes, monocytes, or monocyte-derived DC cultured with GM-CSF and IL-4, were incubated in the presence or absence of PTG for 24 h, at which time supernatants were collected for IL-23, IL-1β, IL-6, IFNγ and TNFα analysis. […] Since neither PTG nor β-glucan activated cytokine production in DC differed from monocytes, we examined the response after pretreatment with IFNγ, given that this treatment has been necessary for the IL-23 response to a variety of agents including β-glucan. immDC were cultured in the presence or absence of IFNγ for 18 h prior to addition of PTG, after which supernatants were subjected to cytokine analysis as described above. […] Moreover, these findings provide insight to the mechanisms in which IFNγ counteracts IL-1 dependent TH17 responses.
While IL-1β is produced by many cell types, IL-23 production is thought to be restricted to activated APC. […] To investigate this hypothesis, we exposed purified lymphocytes, monocytes, or monocyte-derived DC (cultured with GM-CSF and IL-4 for 72 h) to PTG overnight and analyzed the cell-free culture supernatants for IL-23 and related “Th17” polarizing mediators.
Elutriated monocyte cultures. 5×10^5 monocytes/ml were cultured in cRPMI with and without 100 μg/ml PTG, 100 μg/ml β-glucan, or 0.5-50 ng/ml rhIL-1β in 96 well U-bottom plates at 37° C. in 5% CO2 for 20 h. Alternatively, 5×10^5 monocytes/ml were incubated with 0.5 μg/ml rhIL-1ra at 37° C. in 5% CO2 for 1 h then cultured with and without 100 μg/ml PTG or β-glucan for an additional 20 h. […]
Cytokine & chemokine analysis. Cell-free culture supernatants were analyzed for IL-1β, IL-1ra, IL-6, IL-12p70, IFNγ, TNFα (Bio-Plex Cytokine Assay kit, Bio-Rad) or IL-1β, IL-23 (ELISA kit, eBiosciences), IL-1ra and CCL20 (Quantikine ELISA kit, R & D Systems) following the manufacturers' protocols. […]

[5] abbreviates: monocytes, IL-1ra 1 h prior to stimulation.
The mark [6] stands for this setting: PBMC, 5 ng/ml IL-1β alone, 20 h.

Take “IL-1ra: naturally occurring anti-inflammatory IL-1 receptor antagonist; recombinant human, purchased from R & D Systems”: in the experiment with PBMC [1] (0.5 μg/ml IL-1ra 1 h prior, stimulation 20 h, mean of 10 experiments), the “IL-23 and IL-1β responses to PTG and β-glucan” value is given as “significantly inhibits”. Besides, in the experiment on PBMC [1] (PBMC from CD patients), the “induction of IL-23 in response to PTG and β-glucan” value is recorded as “completely inhibited”; the “levels of IL-1β in PBMC treated with PTG or β-glucan” value is “markedly reduced”. Besides, the “IL-23, TNF-α, IL-6 and CCL20 responses to PTG and β-glucan” value in the experiment on PBMC [1] (PBMC from healthy individuals, IL-1ra 1 h prior to stimulation, 20 h) was “inhibits; also recorded: almost completely inhibited”. Besides, the “reduction of the IL-1β response” value in the experiment on PBMC [1] (PBMC, IL-1ra 1 h prior to PTG or β-glucan, 20 h) is on record as approximately 60%. Moreover, the “effect on the IL-23/TH17 profile induced by PTG exposure” value with IFNγ-treated immDC is on record as “had no effect”. Moreover, in the experiment with monocytes [2] (setting [5]), the “IL-23, TNFα, IL-6 and CCL20 responses to PTG” value is reported as “drastically inhibited”; the “cytokine response to β-glucan” value was “inhibited”. Moreover, in the experiment on monocytes [2] (purified monocytes, 0.5 μg/ml IL-1ra, 20 h), the “IL-23 responses to PTG and β-glucan” value is “significantly inhibited; also recorded: blocks”. Moreover, the “IL-1β and IL-23 responses generated by monocytes exposed to gliadin” value in the experiment on monocytes [2] (summary statement) is “substantially inhibits”.
For “IL-1β: recombinant human IL-1β purchased from R & D Systems”, the “effect on the IL-23/TH17 profile induced by PTG exposure” value in the experiment with IFNγ-treated immDC is listed as “had no effect”. Further, in the experiment with PBMC [3] (setting [6]), the “CCL20 and IL-6 produced compared with PTG” value is “equivalent concentrations”; the “IL-23 and TNFα produced compared with PTG” value is listed as “reduced levels”. For the same substance, the “capacity to stimulate IL-23 production, lower than that of PTG or β-glucan” value in the experiment with PBMC [3] (PBMC, 5 ng/ml IL-1β, 20 h, mean of 10 experiments) was approximately 10 fold. Besides, the “IL-23 production by IL-1β alone relative to PTG and β-glucan” value with PBMC [3] (PBMC, physiologic concentrations of exogenous IL-1β) was “much lower levels”. Further, the “IL-23 response of monocytes to exogenous IL-1β” value in the experiment on monocytes [4] (0.5, 5 or 50 ng/ml rhIL-1β, 20 h) is recorded as “dose dependent manner”. Further, the “capacity to activate IL-23 secretion, reduced compared to PTG or β-glucan” value in the experiment with monocytes [4] (purified monocytes, 20 h, means of 5 experiments) is listed as approximately 10 fold.
“β-D-glucan [β-glucan, reference compound]”: in the experiment with PBMC [3] (PBMC from CD patients, 25-500 μg/ml, 24 h), the “dose dependence of IL-1β and IL-23 production” value is “dose-dependent production”. The “IL-23 response in HLA-DQ2+ compared to HLA-DQ2 negative healthy individuals” value in the experiment with PBMC [3] (PBMC, 24 h) is “substantially more IL-23; also recorded: more pronounced effect”. Further, the “concentration at which detectable levels of IL-23 were achieved” value in the experiment with PBMC [3] (dose response curves, PBMC from CD patients, 24 h) came out at 500 µg/mL. In addition, the “cell source of IL-23, IL-1β, CCL20, TNFα and IL-6 secretion” value with monocytes [4] (purified lymphocytes, monocytes, monocyte-derived DC, 100 μg/ml PTG, 24 h) is “confined to monocytes”.
